Consider 25 compounds from patent US20250134842A1, “FATTY ACID MIMETICS AS MODULATORS OF NUCLEAR RECEPTOR TLX (NR2E1)” (Trustees of Dartmouth College, priority 2023, published 2025).

By pEC50 is commonly meant −log10 of the EC50, conventionally taken in molar units. Lower therefore signals a large EC50.

pEC50: −log10 of the molar value.

The target in the assay is nuclear receptor TLX (NR2E1) ligand-binding domain (Homo sapiens (Human), UniProt Q9Y466). The assay is described as follows: AlphaScreen assay detecting TLX-RIP140 NR box peptide interaction. The settings on record: for pEC50 / Efficacy (fold increase): his-tagged TLX LBD, biotinylated RIP140-L6 peptide recruitment; for Emax: read-out: Relative efficacy (%). Type of assay: biochemical. The protocol: In these experiments, compounds from Example 1 were evaluated in a biochemical assay to characterize ligand binding to TLX by detecting alterations in the ability of the TLX ligand binding domain to recruit an NR box peptide derived from the nuclear receptor-interacting protein 1 (NRIP1; receptor-interacting protein 140 (RIP140) transcriptional cofactor. RIP140 has been previously identified as a TLX interacting protein (Corso-Diaz X, et al. (2016) Co-activator candidate interactions for orphan nuclear receptor NR2E1. BMC Genomics 17:832).
nuclear receptor TLX (NR2E1) ligand-binding domain, sequence (Q9Y466 155-383): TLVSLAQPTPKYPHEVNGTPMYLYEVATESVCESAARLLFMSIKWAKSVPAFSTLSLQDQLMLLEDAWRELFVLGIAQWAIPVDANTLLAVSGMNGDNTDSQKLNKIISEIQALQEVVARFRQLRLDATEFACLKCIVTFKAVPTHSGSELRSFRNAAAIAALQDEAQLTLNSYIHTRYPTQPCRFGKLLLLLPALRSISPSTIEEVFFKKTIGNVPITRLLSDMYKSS
AlphaScreen (Perkin Elmer, Shelton, CT) technology was used to detect the TLX-RIP140 NR box peptide interaction. The AlphaScreen assay was performed as previously described using other nuclear receptors including ROR, FXR, LXR, VDR and RXR (Bettoun D J, et al., (2003) Mol Endocrinol 17:2320-2328; Bramlett K S, et al., (2003) Journal of Pharmacology and Experimental Therapeutics 307:291-296; Houck K A, at al., (2004) Mol Genet Metab 83:184-187; Kumar N, et al., (2010) Mol Pharmacol 77:228-236; and Wang Y, et al., (2010) ACS Chemical Biology: 1029-1034. The present experiments used the N-terminal his-tagged ligand-binding domain (LBD) of TLX (NovAliX SAS, Strasbourg, France) and an N-terminal biotinylated RIP140-L6 peptide with a N-terminal KGG linker, namely ([…] (aa484-513)).

In the case of `CCCCCCCCC[C@@H](C)/C=C(/C)C/C(C)=C/[C@H](C)CC(=O)O` [Compound 1-C], the pEC50 is 5.51 and the “Efficacy (fold increase)” value is reported as 6.8 fold. Moreover, the Emax (relative to oleic acid = 100.0) was determined as 81%.
As to `CCCCCCCC/C=C(/C)C/C(C)=C/[C@H](C)CCCC(=O)O` [Compound 2-A], the pEC50 is 5.60 and the “Efficacy (fold increase)” value is recorded as 6.6 fold. Further, the Emax (relative to oleic acid = 100.0) is 78.6%.
As for `CCCCC[C@H](C)/C=C(/C)C/C(C)=C/[C@@H](C)CCCCCC(=O)O` [Compound 3-F], the pEC50 was 6.05 and the “Efficacy (fold increase)” value turned out to be 6.0 fold. Moreover, the Emax (relative to oleic acid = 100.0) was found to be 71.4%.
For the compound `CCCCCCCCCC/C=C(/C)C/C(C)=C/[C@@H](C)CC(=O)O` [Compound 1-B], the pEC50 was 5.62 and the “Efficacy (fold increase)” value is on record as 6.5 fold. The Emax (relative to oleic acid = 100.0) was 77.4%.
On to `CCC[C@H](C)/C=C(/C)C/C(C)=C/[C@H](C)CCCCCCCC(=O)O` [Compound 4-E], for which the negative logarithm of the EC50 (pEC50) was 5.89 and the “Efficacy (fold increase)” value is on record as 5.7 fold. In addition, the Emax (relative to oleic acid = 100.0) was 67.9%.
For `CCCCCCC[C@@H](C)/C=C(/C)C/C(C)=C/[C@H](C)CCCC(=O)O` [Compound 2-C], the pEC50 was 5.82 and the “Efficacy (fold increase)” value is reported as 6.6 fold. Also, under “relative to oleic acid = 100.0”, the Emax was found to be 78.6%.
For `CCC[C@@H](C)/C=C(/C)C/C(C)=C/[C@@H](C)CCCCCCCC(=O)O` [Compound 4-D], the negative-log EC50 (pEC50) is 5.80 and the “Efficacy (fold increase)” value is 6.2 fold. Moreover, the Emax (relative to oleic acid = 100.0) is 73.8%.
With `CCCCCCCCC[C@H](C)/C=C(/C)C/C(C)=C/[C@@H](C)CC(=O)O` [Compound 1-F], the pEC50 is 5.72 and the “Efficacy (fold increase)” value is listed as 7.2 fold. In addition, the Emax (relative to oleic acid = 100.0) came out at 85.7%.
As to `CCCCCCCCC[C@@H](C)/C=C(/C)C/C(C)=C/[C@@H](C)CC(=O)O` [Compound 1-D], the pEC50 was 5.49 and the “Efficacy (fold increase)” value came to 7.1 fold. In addition, the Emax (relative to oleic acid = 100.0) is 84.5%.
As for `CCCCC[C@H](C)/C=C(/C)C/C(C)=C/[C@H](C)CCCCCC(=O)O` [Compound 3-E], the pEC50 was 6.00 and the “Efficacy (fold increase)” value was 6.3 fold. Also, the Emax (relative to oleic acid = 100.0) was found to be 75%.
On to `CCCCCC/C=C(/C)C/C(C)=C/[C@@H](C)CCCCCC(=O)O` [Compound 3-B], for which the negative-log EC50 (pEC50) is 6.05 and the “Efficacy (fold increase)” value was 6.6 fold. Besides, the Emax (relative to oleic acid = 100.0) turned out to be 78.6%.
For `CCCCC[C@@H](C)/C=C(/C)C/C(C)=C/[C@H](C)CCCCCC(=O)O` [Compound 3-C], the pEC50 was 6.10 and the “Efficacy (fold increase)” value is on record as 5.5 fold. For the same compound, the Emax (relative to oleic acid = 100.0) amounted to 65.5%.
Take `CCCCCCCC/C=C(/C)C/C(C)=C/[C@@H](C)CCCC(=O)O` [Compound 2-B]: the pEC50 was 5.51 and the “Efficacy (fold increase)” value turned out to be 6.6 fold. Further, the Emax (relative to oleic acid = 100.0) stood at 78.6%.
Turning to `CCCCCCCC/C=C\CCCCCCCC(=O)O` [Oleic Acid, oleic acid, reference compound], the pEC50 is 5.44 and the “Efficacy (fold increase)” value was found to be 8.4 fold. Besides, the “Relative efficacy (%)” value (relative to oleic acid = 100.0) is reported as 100.0%.
Consider `CCC[C@@H](C)/C=C(/C)C/C(C)=C/[C@H](C)CCCCCCCC(=O)O` [Compound 4-C], for which the pEC50 is 5.82 and the “Efficacy (fold increase)” value is 6.2 fold. Moreover, under “relative to oleic acid = 100.0”, the Emax amounted to 73.8%.
As to `CCCC/C=C(/C)C/C(C)=C/[C@H](C)CCCCCCCC(=O)O` [Compound 4-A], the pEC50 was 5.82 and the “Efficacy (fold increase)” value amounted to 6.6 fold. The Emax (relative to oleic acid = 100.0) was 78.6%.
For the compound `CCC[C@H](C)/C=C(/C)C/C(C)=C/[C@@H](C)CCCCCCCC(=O)O` [Compound 4-F], the pEC50 was 5.72 and the “Efficacy (fold increase)” value worked out at 6.0 fold. The Emax (relative to oleic acid = 100.0) amounted to 71.4%.
For `CCCC/C=C(/C)C/C(C)=C/[C@@H](C)CCCCCCCC(=O)O` [Compound 4-B], the pEC50 was 5.52 and the “Efficacy (fold increase)” value turned out to be 7.1 fold. The Emax (relative to oleic acid = 100.0) was 84.5%.
Regarding `CCCCCC/C=C(/C)C/C(C)=C/[C@H](C)CCCCCC(=O)O` [Compound 3-A], the negative-log EC50 (pEC50) was 5.80 and the “Efficacy (fold increase)” value is 6.5 fold. For the same compound, the Emax (relative to oleic acid = 100.0) was determined as 77.4%.
Regarding `CCCCCCC[C@@H](C)/C=C(/C)C/C(C)=C/[C@@H](C)CCCC(=O)O` [Compound 2-D], the negative-log EC50 (pEC50) is 5.89 and the “Efficacy (fold increase)” value was 5.8 fold. Moreover, the Emax (relative to oleic acid = 100.0) is 69%.
On to `CCCCCCC[C@H](C)/C=C(/C)C/C(C)=C/[C@H](C)CCCC(=O)O` [Compound 2-E], for which the pEC50 is 5.89 and the “Efficacy (fold increase)” value amounted to 5.8 fold. For the same compound, the Emax (relative to oleic acid = 100.0) was found to be 69%.
The like results for `CCCCC[C@@H](C)/C=C(/C)C/C(C)=C/[C@@H](C)CCCCCC(=O)O` [Compound 3-D] were, in that order, 5.92, 6.1 fold and 72.6%.
Regarding `CCCCCCC[C@H](C)/C=C(/C)C/C(C)=C/[C@@H](C)CCCC(=O)O` [Compound 2-F], the pEC50 is 5.80 and the “Efficacy (fold increase)” value came out at 6.1 fold. Besides, the Emax (relative to oleic acid = 100.0) was found to be 72.6%.
Consider `CCCCCCCCC[C@H](C)/C=C(/C)C/C(C)=C/[C@H](C)CC(=O)O` [Compound 1-E], for which the pEC50 is 5.77 and the “Efficacy (fold increase)” value was 6.2 fold. In addition, the Emax (relative to oleic acid = 100.0) was found to be 73.8%.
The like results for `CCCCCCCCCC/C=C(/C)C/C(C)=C/[C@H](C)CC(=O)O` [Compound 1-A] were, in that order, 5.66, 6.1 fold and 72.6%.
